Test results: patent US10570122B2, “Compounds with anti-tumoral activity” (AB Science, priority 2015, dated 2020)

Key:
CALU6 = test: CellTiter-Blue cell-based survival/proliferation assay, CALU6; details: Homo sapiens, Calu-6; CALU6 lung tumor cell line, 48 h
Summary of the method: (§1)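 Compounds, diluted tenfold serially over 0–10 μM, are applied to 1·10^4 seeded cells per well for 48 h at 37 °C. Resorufin formed during a further 4 h with CellTiter-Blue is detected by fluorescence emission at 590 nm.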

U118 = test: CellTiter-Blue cell-based survival/proliferation assay, U118; details: Homo sapiens; U118 glioblastoma cell line, 48 h
Method: (§2) Cell-Based Proliferation Screening of Compounds
(§3) CellTiter-Blue cell-based survival/proliferation assay (Promega G8080) was performed on tumor cell lines. A total of 1·10^4 cells/well/50 μl were seeded in a 96-wells plate. Treatment was initiated by addition of a 2× drug solution of 1/10 serial dilutions ranging from 0 to 10 μM. Cells were grown for 48 h at 37° C. and then incubated with 10 μl/well of Promega CellTiter-Bleue reagent for 4 h at 37° C. The amount of resorufin dye formed was quantified by its fluorescence emission at 590 nm using a scanning multiwell spectrophotometer (OPTIMA, BMG labtech, France). A blank well without cells was used as a background control for the spectrophotometer.

A375 = test: CellTiter-Blue cell-based survival/proliferation assay, A375; details: Homo sapiens, A-375; A375 melanoma cell line, 48 h
Method: as §2, §3

HEP2 = test: CellTiter-Blue cell-based survival/proliferation assay, HEP2; details: Homo sapiens, HEp-2; HEP2 head & neck tumor cell line, 48 h
Summary of the method: as §1

PLCPRF5 = test: CellTiter-Blue cell-based survival/proliferation assay, PLCPRF5; details: Homo sapiens, PLC-PRF-5; PLC_PRF5 liver tumor cell line, 48 h
Summary of the method: as §1

MESSA = test: CellTiter-Blue cell-based survival/proliferation assay, MESSA; details: Homo sapiens, MES-SA; MESSA ovary tumor cell line, 48 h
Summary of the method: as §1

ACHN = test: CellTiter-Blue cell-based survival/proliferation assay, ACHN; details: Homo sapiens; ACHN kidney tumor cell line, 48 h
Summary of the method: as §1

BXPC3 = test: CellTiter-Blue cell-based survival/proliferation assay, BXPC3; details: Homo sapiens, BXPC-3; BXPC3 pancreas tumor cell line, 48 h
Summary of the method: as §1

A549 = test: CellTiter-Blue cell-based survival/proliferation assay, A549; details: Homo sapiens; A549 lung tumor cell line, 48 h
Summary of the method: as §1

HCT116 = test: CellTiter-Blue cell-based survival/proliferation assay, HCT116; details: Homo sapiens, HCT-116; HCT116 colorectal tumor cell line, 48 h
Summary of the method: as §1

MELWO = test: CellTiter-Blue cell-based survival/proliferation assay, MELWO; details: Homo sapiens; MEL_WO melanoma cell line, 48 h
Method: as §2, §3

H1299 = test: CellTiter-Blue cell-based survival/proliferation assay, H1299; details: Homo sapiens, NCI-H1299; H1299 lung tumor cell line, 48 h
Summary of the method: as §1

MDAMB231 = test: CellTiter-Blue cell-based survival/proliferation assay, MDAMB231; details: Homo sapiens, MDA-MB-231; MDAMB231 breast tumor cell line, 48 h
Summary of the method: as §1

SW579 = test: CellTiter-Blue cell-based survival/proliferation assay, SW579; details: Homo sapiens; SW579 head & neck tumor cell line, 48 h
Summary of the method: as §1

DU145 = test: CellTiter-Blue cell-based survival/proliferation assay, DU145; details: Homo sapiens, DU-145; DU145 prostate tumor cell line, 48 h
Summary of the method: as §1

KARPAS299 = test: CellTiter-Blue cell-based survival/proliferation assay, KARPAS299; details: Homo sapiens, KARPAS-299, Lymphoma cell line KARPAS299, 48 h, read-out: Anti-tumoral activity (measured IC50) KARPAS299
Summary of the method: as §1

AGS = test: CellTiter-Blue cell-based survival/proliferation assay, AGS; details: Homo sapiens; AGS stomach tumor cell line, 48 h
Summary of the method: as §1

PANC1 = test: CellTiter-Blue cell-based survival/proliferation assay, PANC1; details: Homo sapiens, PANC-1; PANC_1 pancreas tumor cell line, 48 h
Summary of the method: as §1

HEPG2 = test: CellTiter-Blue cell-based survival/proliferation assay, HEPG2; details: Homo sapiens; HEPG2 liver tumor cell line, 48 h
Summary of the method: as §1

REC1 = test: CellTiter-Blue cell-based survival/proliferation assay, REC1; details: Homo sapiens, Lymphoma cell line REC1, 48 h, read-out: Anti-tumoral activity (measured IC50) REC1
Summary of the method: as §1

DLD1 = test: CellTiter-Blue cell-based survival/proliferation assay, DLD1; details: Homo sapiens, DLD-1; DLD_1 colorectal tumor cell line, 48 h
Summary of the method: as §1

HUT78 = test: CellTiter-Blue cell-based survival/proliferation assay, HUT78; details: Homo sapiens, Lymphoma cell line HUT78, 48 h, read-out: Anti-tumoral activity (measured IC50) HUT78
Summary of the method: as §1

HGC27 = test: CellTiter-Blue cell-based survival/proliferation assay, HGC27; details: Homo sapiens, HGC-27; HGC27 stomach tumor cell line, 48 h
Summary of the method: as §1

OPM2 = test: CellTiter-Blue cell-based survival/proliferation assay, OPM2; details: Homo sapiens, OPM-2, Myeloma cell line OPM2, 48 h, read-out: Anti-tumoral activity (measured IC50) OPM2
Summary of the method: as §1

A498 = test: CellTiter-Blue cell-based survival/proliferation assay, A498; details: Homo sapiens; A498 kidney tumor cell line, 48 h
Summary of the method: as §1

PC3 = test: CellTiter-Blue cell-based survival/proliferation assay, PC3; details: Homo sapiens, PC-3; PC3 prostate tumor cell line, 48 h
Summary of the method: as §1

U2OS = test: CellTiter-Blue cell-based survival/proliferation assay, U2OS; details: Homo sapiens; U2OS osteosarcoma cell line, 48 h
Method: as §2, §3

HL60 = test: CellTiter-Blue cell-based survival/proliferation assay, HL60; details: Homo sapiens, HL-60, Leukemia cell line HL60, 48 h, read-out: Anti-tumoral activity (measured IC50) HL60
Summary of the method: as §1

BT20 = test: CellTiter-Blue cell-based survival/proliferation assay, BT20; details: Homo sapiens, BT-20; BT20 breast tumor cell line, 48 h
Summary of the method: as §1

CLS354 = test: CellTiter-Blue cell-based survival/proliferation assay, CLS354; details: Homo sapiens, CLS-354; CLS354_4 head & neck tumor cell line, 48 h
Summary of the method: as §1

A4513 = test: CellTiter-Blue cell-based survival/proliferation assay, A4513; details: Homo sapiens; A4513 Ewing cell line, 48 h
Method: as §2, §3

U87MG = test: CellTiter-Blue cell-based survival/proliferation assay, U87MG; details: Homo sapiens, U-87 MG; U87_MG glioblastoma cell line, 48 h
Method: as §2, §3

TOV112D = test: CellTiter-Blue cell-based survival/proliferation assay, TOV112D; details: Homo sapiens; TOV112D ovary tumor cell line, 48 h
Summary of the method: as §1

SMILES	IC50 (CALU6)	IC50 (U118)	IC50 (A375)	IC50 (HEP2)	IC50 (PLCPRF5)	IC50 (MESSA)	IC50 (ACHN)	IC50 (BXPC3)	IC50 (A549)	IC50 (HCT116)	IC50 (MELWO)	IC50 (H1299)	IC50 (MDAMB231)	IC50 (SW579)	IC50 (DU145)	IC50 (KARPAS299)	IC50 (AGS)	IC50 (PANC1)	IC50 (HEPG2)	IC50 (REC1)	also measured
CCOCc1ccc(C)c(Nc2ncc(-c3ccc(N4CCNC4=O)cc3)s2)c1 [Example 014, 1-{4-[2-(5-Ethoxymethyl-(2-methyl-phenylamino))-thiazol-5-yl]-phenyl}-imidazolidin-2-one]	> 1 µM	> 1 µM	> 1 µM	> 1 µM	> 1 µM	> 1 µM	> 1 µM	> 1 µM	> 1 µM	> 1 µM	> 1 µM	> 1 µM	> 1 µM	> 1 µM	> 1 µM	0.1 to 0.5 µM	> 1 µM	> 1 µM	> 1 µM	> 1 µM	IC50 (DLD1): > 1 µM; IC50 (HUT78): > 1 µM; IC50 (HGC27): > 1 µM; IC50 (OPM2): > 1 µM; IC50 (A498): > 1 µM; IC50 (PC3): > 1 µM; IC50 (U2OS): > 1 µM; IC50 (HL60): > 1 µM; IC50 (BT20): > 1 µM; IC50 (CLS354): > 1 µM; IC50 (A4513): 0.5 to 1 µM; IC50 (U87MG): > 1 µM; IC50 (TOV112D): > 1 µM
CCOCc1ccc(C)c(Nc2nc(-c3ccc(-n4cccn4)cc3)cs2)c1 [Example 015, (5-Ethoxymethyl-2-methyl-phenyl)-[4-(4-pyrazol-1-yl-phenyl)-thiazol-2-yl]-amine]	> 1 µM	> 1 µM	> 1 µM	> 1 µM	> 1 µM	> 1 µM	> 1 µM	> 1 µM	> 1 µM	> 1 µM	> 1 µM	> 1 µM	> 1 µM	> 1 µM	> 1 µM	≤ 0.1 µM	> 1 µM	> 1 µM	> 1 µM	≤ 0.1 µM	IC50 (DLD1): > 1 µM; IC50 (HUT78): ≤ 0.1 µM; IC50 (HGC27): > 1 µM; IC50 (OPM2): 0.1 to 0.5 µM; IC50 (A498): 0.5 to 1 µM; IC50 (PC3): ≤ 0.1 µM; IC50 (U2OS): > 1 µM; IC50 (HL60): ≤ 0.1 µM; IC50 (BT20): > 1 µM; IC50 (CLS354): ≤ 0.1 µM; IC50 (A4513): 0.1 to 0.5 µM; IC50 (U87MG): > 1 µM; IC50 (TOV112D): 0.5 to 1 µM
Cc1ccc(CO)cc1Nc1nc(-c2ccc(-n3cccn3)cc2)cs1 [Example 016, {4-Methyl-3-[4-(4-pyrazol-1-yl-phenyl)-thiazol-2-ylamino]-phenyl}-methanol]	> 1 µM	> 1 µM	> 1 µM	> 1 µM	> 1 µM	> 1 µM	> 1 µM	> 1 µM	> 1 µM	> 1 µM	> 1 µM	> 1 µM	> 1 µM	> 1 µM	> 1 µM	> 1 µM	> 1 µM	> 1 µM	> 1 µM	> 1 µM	IC50 (DLD1): > 1 µM; IC50 (HUT78): > 1 µM; IC50 (HGC27): > 1 µM; IC50 (OPM2): > 1 µM; IC50 (A498): > 1 µM; IC50 (PC3): > 1 µM; IC50 (U2OS): > 1 µM; IC50 (HL60): > 1 µM; IC50 (BT20): > 1 µM; IC50 (CLS354): > 1 µM; IC50 (A4513): > 1 µM; IC50 (U87MG): > 1 µM; IC50 (TOV112D): > 1 µM
CCOCc1ccc(C)c(Nc2nc(-c3ccc(-n4ccnc4)cc3)cs2)c1 [Example 017, (5-Ethoxymethyl-2-methyl-phenyl)-[4-(4-imidazol-1-yl-phenyl)-thiazol-2-yl]-amine]	> 1 µM	> 1 µM	> 1 µM	> 1 µM	> 1 µM	> 1 µM	> 1 µM	> 1 µM	> 1 µM	> 1 µM	> 1 µM	> 1 µM	> 1 µM	> 1 µM	> 1 µM	> 1 µM	> 1 µM	> 1 µM	> 1 µM	> 1 µM	IC50 (DLD1): > 1 µM; IC50 (HUT78): > 1 µM; IC50 (HGC27): > 1 µM; IC50 (OPM2): > 1 µM; IC50 (A498): > 1 µM; IC50 (PC3): > 1 µM; IC50 (U2OS): > 1 µM; IC50 (HL60): > 1 µM; IC50 (BT20): > 1 µM; IC50 (CLS354): > 1 µM; IC50 (A4513): > 1 µM; IC50 (U87MG): > 1 µM; IC50 (TOV112D): > 1 µM
CCOCc1cc(C)cc(Nc2nc(-c3ccc(N4CCNC4=O)cc3)cs2)c1 [Example 018, 1-{4-[2-(3-Ethoxymethyl-(5-methyl-phenylamino))-thiazol-4-yl]-phenyl}-imidazolidin-2-one]	> 1 µM	> 1 µM	≤ 0.1 µM	≤ 0.1 µM	> 1 µM	> 1 µM	0.5 to 1 µM	> 1 µM	≤ 0.1 µM	0.1 to 0.5 µM	> 1 µM	> 1 µM	> 1 µM	> 1 µM	> 1 µM	≤ 0.1 µM	> 1 µM	> 1 µM	> 1 µM	≤ 0.1 µM	IC50 (DLD1): > 1 µM; IC50 (HUT78): ≤ 0.1 µM; IC50 (HGC27): 0.5 to 1 µM; IC50 (OPM2): ≤ 0.1 µM; IC50 (A498): 0.5 to 1 µM; IC50 (PC3): > 1 µM; IC50 (U2OS): 0.1 to 0.5 µM; IC50 (HL60): ≤ 0.1 µM; IC50 (BT20): > 1 µM; IC50 (CLS354): ≤ 0.1 µM; IC50 (A4513): ≤ 0.1 µM; IC50 (U87MG): > 1 µM; IC50 (TOV112D): ≤ 0.1 µM
